Values of other authors, collected in patent US20200268761A1 (CIPLA LIMITED, priority 2017, published 2020).

Key:
p-glycoprotein = p-glycoprotein (Homo sapiens, UniProt P08183)
CYP3A4 = CYP3A4 (Homo sapiens, UniProt P08684); conditions: major drug metabolizing enzyme
Chain of CYP3A4 (P08684 whole entry, species assumed): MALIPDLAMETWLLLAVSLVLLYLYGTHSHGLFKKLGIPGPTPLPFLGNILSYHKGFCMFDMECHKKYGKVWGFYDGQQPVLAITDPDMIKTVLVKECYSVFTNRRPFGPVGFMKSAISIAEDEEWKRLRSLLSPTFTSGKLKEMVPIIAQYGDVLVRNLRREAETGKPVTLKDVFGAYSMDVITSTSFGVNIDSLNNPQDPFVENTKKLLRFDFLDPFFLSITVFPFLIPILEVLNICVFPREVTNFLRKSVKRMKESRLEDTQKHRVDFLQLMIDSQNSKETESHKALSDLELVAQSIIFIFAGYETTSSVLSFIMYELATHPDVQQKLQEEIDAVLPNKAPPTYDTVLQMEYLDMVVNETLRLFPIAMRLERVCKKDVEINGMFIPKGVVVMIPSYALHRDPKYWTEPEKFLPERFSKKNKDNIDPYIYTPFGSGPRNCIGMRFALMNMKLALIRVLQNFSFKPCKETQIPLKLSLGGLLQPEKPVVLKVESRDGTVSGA

Chain of p-glycoprotein (P08183 whole entry): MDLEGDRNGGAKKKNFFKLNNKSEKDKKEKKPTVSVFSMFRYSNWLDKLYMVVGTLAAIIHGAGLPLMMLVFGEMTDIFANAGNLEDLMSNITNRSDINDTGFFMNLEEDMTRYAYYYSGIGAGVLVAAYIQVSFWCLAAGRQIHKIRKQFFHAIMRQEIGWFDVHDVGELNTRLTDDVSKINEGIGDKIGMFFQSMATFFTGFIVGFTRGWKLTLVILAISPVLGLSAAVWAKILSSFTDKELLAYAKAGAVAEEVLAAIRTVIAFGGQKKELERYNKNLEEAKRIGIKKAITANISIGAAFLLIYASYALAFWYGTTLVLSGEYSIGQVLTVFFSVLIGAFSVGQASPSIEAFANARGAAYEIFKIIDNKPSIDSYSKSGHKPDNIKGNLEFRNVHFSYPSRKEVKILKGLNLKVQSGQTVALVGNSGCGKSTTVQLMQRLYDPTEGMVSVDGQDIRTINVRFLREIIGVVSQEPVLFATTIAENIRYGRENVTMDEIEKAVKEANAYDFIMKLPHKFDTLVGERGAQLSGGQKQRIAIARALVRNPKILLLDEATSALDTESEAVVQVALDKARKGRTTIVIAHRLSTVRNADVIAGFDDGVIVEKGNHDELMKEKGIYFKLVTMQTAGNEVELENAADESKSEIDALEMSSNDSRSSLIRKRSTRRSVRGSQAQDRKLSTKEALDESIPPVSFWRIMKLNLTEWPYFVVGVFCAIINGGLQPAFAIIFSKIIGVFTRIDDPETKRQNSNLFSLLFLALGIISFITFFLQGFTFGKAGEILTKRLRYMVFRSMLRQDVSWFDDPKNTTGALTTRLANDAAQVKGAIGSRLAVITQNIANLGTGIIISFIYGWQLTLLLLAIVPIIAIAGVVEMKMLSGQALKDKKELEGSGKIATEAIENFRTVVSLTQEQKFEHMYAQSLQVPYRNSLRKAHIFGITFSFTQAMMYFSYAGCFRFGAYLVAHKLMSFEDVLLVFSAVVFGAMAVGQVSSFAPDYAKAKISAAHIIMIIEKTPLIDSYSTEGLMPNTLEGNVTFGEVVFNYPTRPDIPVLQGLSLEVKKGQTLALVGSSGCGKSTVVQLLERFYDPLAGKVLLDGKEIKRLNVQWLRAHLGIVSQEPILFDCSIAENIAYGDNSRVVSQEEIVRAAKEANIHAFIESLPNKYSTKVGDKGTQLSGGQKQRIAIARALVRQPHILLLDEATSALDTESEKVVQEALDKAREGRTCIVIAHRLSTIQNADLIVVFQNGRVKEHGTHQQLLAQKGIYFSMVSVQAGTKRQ

| Structure (SMILES) | solubility in HCl at pH 1.2 (HCl, pH 1.2) | solubility in N,N-dimethylformamide, tetrahydrofuran and dichloromethane (N,N-dimethylformamide, tetrahydrofuran, dichloromethane) | solubility in acetone and methanol (acetone, methanol) | solubility in ethyl acetate, ethanol and acetonitrile (ethyl acetate, ethanol, acetonitrile) | solubility in non-polar solvents (non-polar solvents such as hexane and heptanes) | solubility in water (water, ibrutinib base) | inhibition of p-glycoprotein (p-glycoprotein) | inhibition of CYP3A4 (CYP3A4) |
| --- | --- | --- | --- | --- | --- | --- | --- | --- |
| C=CC(=O)N1CCC[C@@H](n2nc(-c3ccc(Oc4ccccc4)cc3)c3c(N)ncnc32)C1 [Ibrutinib] | slightly soluble | freely soluble | soluble | sparingly soluble | practically insoluble | practically insoluble | – | – |
| O=C(/C=C/C=C/c1ccc2c(c1)OCO2)N1CCCCC1 [Piperine, (E.E.) 1˜[5,3-benzodioxyl-5-yl)-1-oxo-2,4-pentadienyl-piperidine] | – | – | – | – | – | – | inhibits | inhibits |
